In BindingDB's records for patent US12534477 (Hangzhou Zhongmeihuadong Pharmaceutical, 2026) one finds IC50 data, which are given here for four compounds.

pIC50: −log10 of the molar value.

For this assay, the target named is T1, Ketohexokinase (Human, UniProt P50053).
T1 sequence (P50053 whole entry): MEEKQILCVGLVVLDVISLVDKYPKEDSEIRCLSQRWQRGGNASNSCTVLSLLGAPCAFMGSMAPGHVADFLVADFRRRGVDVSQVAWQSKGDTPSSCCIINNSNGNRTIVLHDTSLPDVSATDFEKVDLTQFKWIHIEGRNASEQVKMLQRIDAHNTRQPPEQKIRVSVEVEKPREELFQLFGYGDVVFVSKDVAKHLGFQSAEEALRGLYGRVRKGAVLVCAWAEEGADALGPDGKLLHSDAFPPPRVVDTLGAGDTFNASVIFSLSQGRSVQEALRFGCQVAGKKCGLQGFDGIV
The assay can be described thus: Ketohexokinase Assay (KHK Assay). The protocol:
a) Kinase Reaction1. preparation of Dilution Buffer containing 50 mM hydroxyethylpiperazine […] (Hepes), 140 mM KCl, 3.5 mM MgCl2, and 0.01% bovine serum albumin (BSA), pH 7.4.2. A working solution of ketohexokinase at 2.5 times concentration was prepared with Dilution Buffer, with 50 nM ketohexokinase and 12.5 mM fructose.3. A working solution of adenosine triphosphate (ATP) at 2.5 times concentration was prepared with Dilution Buffer, with a concentration of 250 μM.4. Each compound was diluted starting at a concentration of 500 μM, 3-fold diluted for 9 concentration points. The final concentration of the compound in the reaction system started from 10 μM and the final concentration of dimethyl sulfoxide (DMSO) was 2%.5. A 96-well plate was prepared as a reaction plate, and was incubated at room temperature for 5 min after adding 6 μL ketohexokinase working solution at 2.5 times concentration to each well and further adding 3 μL compound working solution to each well.6. The first well of each row was a positive control for a compound, i.e. the same volume of the buffer was added to replace the compound […]. The last well was a negative control for the compound, i.e. the same volume of Dilution Buffer was added instead of the compound.7. 6 μL ATP working solution was added to each well in a 96-well reaction plate to initiate the kinase reaction. The kinase reaction was incubated in a constant temperature heater at 28° C. for 1 h.b) ADP-Glo assay1. A384 plate was prepared as a detection plate, and firstly 5 μL ADP-Glo reagent was added.2. 5 μL kinase reaction mixture from the reaction plate was added to each well and incubated in a constant temperature heater at 28° C. for 30 min.3. 10 μL kinase detection reagent was added to each well and incubated in a constant temperature heater at 28° C. for 30 min.4. The detection plate was placed in an EnVision multilabel reader to read the chemiluminescent signal.

What is called pIC50 is the IC50 on a negative log10 scale, so that one unit is a factor of ten. Higher therefore signals a low IC50. `C[C@H]1CCN1c1nc(Nc2ccc(C(=O)O)c(C(F)(F)F)c2)c2ccsc2n1` [US12534477, Compound WX013] gave a pIC50 of 7.77.
In the case of `C[C@H]1CCN1c1nc(N2CC3(CC3C(=O)O)C2)c2c(n1)C(F)(F)CC2` (some centres undefined) [US12534477, Compound WX035] it was 7.44; in that of `C[C@H]1CCN1c1nc(N2CC3(C[C@@H]3C(=O)O)C2)c2c(n1)C(F)(F)CC2` [US12534477, Compound WX042], 7.68; in that of `C[C@H]1CCN1c1nc(N2CC3(C[C@H]3C(=O)O)C2)c2c(n1)C(F)(F)CC2` [US12534477, Compound WX043], 7.55.
